# Laboratory results taken from patent publication US5536853A, “Opiate receptor ligands” (Chiron Corporation, priority 1994, dated 1996).
# Biological target: T1, μ-specific opiate receptor (Rattus norvegicus, UniProt P33535)
# T1 construct: Rat forebrains were homogenized and washed; from tissue; host or cells: rat forebrain membranes
# Assay: in vitro solution-phase radioligand competition assay ([3H]-DAMGO, rat forebrain membranes)
# Type: binding
# Conditions: 1 nM [3H]-DAMGO, pH 7.5, 1 hr room temperature
# Method: Compounds were screened in vitro using the following assay:
# High-affinity ligands for the μ-specific opiate receptor were identified from a diverse peptoid library by testing the pools of compounds in solution-phase radioligand competition assays, and tracing the binding activity to individual compounds by iterative resynthesis and screening of smaller sub-pools.
# Rat forebrains were homogenized and washed in 50 mM Tris, pH 7.5 containing 20 mM NaCl, 5 mM EGTA, 2 mM MgCl2, 21 μg/mL aprotinin, 0.5 mg/L leupeptin, 0.7 mg/L pepstatin, 0.2 Mm PMSF. 50 μL of membrane (10 mg/mL protein) were dispensed into 1 mL of 50 mM Tris, pH 7.5, 1 nM [^3 H]-DAMGO and the peptoid mixture. All assays were performed at 100 nM per peptoid.
# Nonspecific binding was determined as [^3 H]-DAMGO bound in the presence of 1 μM naloxone. Incubation was for 1 hr at room temperature. Unbound radioactivity was removed by rinsing the membranes on Whatman GF/B glass fiber filters. Each filter was washed 3 times with 3 mL of 50 mM Tris, pH 7.5, 4° C. Filters were soaked overnight in 5 mL of Beckman ReadySafe scintillation cocktail and then counted for one minute in a Wallac 1409 liquid scintillation counter. Assays were performed in duplicate.
# T1 sequence (P33535 whole entry): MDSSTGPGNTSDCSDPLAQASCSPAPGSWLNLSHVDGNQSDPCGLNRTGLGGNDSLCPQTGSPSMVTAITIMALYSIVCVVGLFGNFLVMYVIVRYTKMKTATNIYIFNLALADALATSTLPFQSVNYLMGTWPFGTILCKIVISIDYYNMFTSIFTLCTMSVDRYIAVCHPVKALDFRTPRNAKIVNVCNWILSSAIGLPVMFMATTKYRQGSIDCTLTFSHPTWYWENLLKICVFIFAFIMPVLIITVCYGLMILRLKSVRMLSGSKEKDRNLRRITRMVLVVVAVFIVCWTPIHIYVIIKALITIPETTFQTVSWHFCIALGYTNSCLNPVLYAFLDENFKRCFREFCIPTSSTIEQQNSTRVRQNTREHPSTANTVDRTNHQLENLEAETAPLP
row,SMILES,Ki [nM]
1,"COc1ccc(CN(CC(=O)N(CCc2ccc(O)cc2)CC(N)=O)C(=O)CNCC(c2ccccc2)c2ccccc2)cc1OC [CHIR-4537, Nbhm-Nddb-Nhtyr]",45
2,"NC(=O)CN(CCc1ccc(O)cc1)C(=O)CN(Cc1ccc2c(c1)OCO2)C(=O)CNCC(c1ccccc1)c1ccccc1 [CHIR-4531, Nbhm-Nmdb-Nhtyr]",7
3,"CCCCCN(CC(=O)N(CCc1ccc(O)cc1)CC(N)=O)C(=O)CNCC(c1ccccc1)c1ccccc1 [CHIR-4534, Nbhm-Npen-Nhtyr]",30

# Same assay, conditions: at 100 nM, 1 nM [3H]-DAMGO, pH 7.5, 1 hr room temperature
row,SMILES,inhibition at 0.1 µM [%]
1,"NC(=O)CN(CCc1ccc(O)cc1)C(=O)CN(Cc1ccc2c(c1)OCO2)C(=O)CNCC=C(c1ccccc1)c1ccccc1 [CHIR 5062, Nbvp-Nmdb-Nhtyr]",65
2,"NC(=O)CN(CCc1ccc(O)cc1)C(=O)CN(Cc1ccc2c(c1)OCO2)C(=O)C=CCNCC(c1ccccc1)c1ccccc1 [CHIR 5045, Nvbhm-Nmdb-Nhtyr]",58
3,"COc1cc(CN(CC(=O)N(CCc2ccc(O)cc2)CC(N)=O)C(=O)CNCC(c2ccccc2)c2ccccc2)cc(OC)c1OC [CHIR 4626, Nbhm-Ntrnb-Nhtyr]",86
4,"NC(=O)CN(CCc1ccc(O)cc1)C(=O)CN(Cc1ccccc1)C(=O)CNCC(c1ccccc1)c1ccccc1 [CHIR 4627, Nbhm-Nphe-Nhtyr]",90
5,"NC(=O)CN(CCc1ccc(O)cc1)C(=O)CN(Cc1ccc2c(c1)OCO2)C(=O)CNCCC(c1ccccc1)c1ccccc1 [CHIR 4622, Nbhe-Nmdb-Nhtyr]",78
6,"CC(NCC(c1ccccc1)c1ccccc1)C(=O)N(CC(=O)N(CCc1ccc(O)cc1)CC(N)=O)Cc1ccc2c(c1)OCO2 (stereo not shown) [CHIR 5052, Nbha-Nmdb-Nhtyr]",73
7,"NC(=O)CN(CCc1ccccc1)C(=O)CN(Cc1ccccc1)C(=O)CNCC(c1ccccc1)c1ccccc1 [CHIR 4628, Nbhm-Nphe-Nhphe]",77
